Measurements taken from patent publication US20150093333A1, “COMPOSITIONS, METHODS AND USES FOR PEPTIDES IN DIAGNOSIS, PROGRESSION AND TREATMENT OF CANCERS” (THE REGENTS OF THE UNIVERSITY OF COLORADO, body corporate, priority 2003, published 2015).
Read-outs that look alike come from different tables or passages of the source.

What was measured:
lipid vesicles = assay: Fluorescence anisotropy titration of BK derived peptides with lipid vesicles; assay type: binding; conditions: read-out: Dissociation constant (Kd)
Description: In another method, synthetic lipid vesicles of various sizes were prepared to model different membrane curvatures for testing interactions. Three compositions of vesicles were designed to closely resemble natural biological membranes named lipid model (LM) 1, 2, and 3. These vesicles were prepared by extrusion under inert, pressure-controlled method through polycarbonate membranes with pore sizes of 400, 80, and 30 nm to cover a wide range of curvatures. Since curvature is defined as the inverse of radius, the smallest size represents vesicles with the highest curvature. […] These vesicles were further characterized by transmission electron microscopy (TEM) to verify the sizes found by DLS.
In other exemplary methods, binding strength of the interactions were assessed. Fluorescence anisotropy (FA) assay was adopted to measure the binding constants. The peptide partitions between the hydrophobic lipid bilayer and the aqueous solvent and the dissociation constant (Kd) calculated as the reciprocal of the molar partition coefficient. A constant concentration of peptide was titrated with increasing concentration of lipid vesicles and the FA due to the change in the rotational time of the small peptide when it binds to the relatively bigger lipid vesicles was measured and plotted versus the total lipid concentration. […] Fluorescence anisotropy titration was performed to obtain the Kd values. Lower values indicate stronger binding. LM=liposome model. [Peptide]=1 μM; [Lipid titrant]=2 mM.

exosomes (Ex) = assay: Fluorescence enhancement of BK derived peptides with exosomes from rat blood plasma; assay type: binding; conditions: Ex treated peptide vs untreated
Source text: In support of the observations with synthetic vesicles to translate to naturally-occurring extracellular vesicles, exosomes (Ex) purified from blood plasma of rats underwent inescapable tailshock stress as an acceptable model of exosome release. Ex have diameters of 40-100 nm, therefore providing a good biological model for testing the curvature-sensing peptides. […] The total number of Ex in the sample was counted by nanoparticle tracking analysis to ensure that is in the same order of magnitude as the 500 μM lipids in the synthetic models.

“monomeric Bradykinin derivative: GRPPGFSPFR with ε-azidolysine and NBD-X fluorophore at the N-terminus [Peptide 1]” gave a Kd (lipid vesicles; LM 1 V58) of 996 ± 230 µM, a Kd (lipid vesicles; LM 1 V116) of 940 ± 160 µM and a Kd (lipid vesicles; LM 1 V454) of 7.14 µM. For the same substance, the Kd (lipid vesicles; LM 2 V116) was 585 ± 62 µM, the Kd (lipid vesicles; LM 2 V454) was > 1000 µM and the Kd (lipid vesicles; LM 2 V) was 488 ± 72 µM. It also gave a Kd (lipid vesicles; LM 3 V58) of 407 ± 56 µM, a Kd (lipid vesicles; LM 3 V116) of 893 ± 101 µM and a Kd (lipid vesicles; LM 3 V454) of 902 ± 141 µM. The fluorescence intensity (exosomes (Ex)) was 3.09±0.08 RFU.
